Test results as given in paper PMC9096165 (Frontiers in Pharmacology, 2022).
Where two headings read alike, the source gives them in different places.

Assays:
[1] = tested on: panel of GPCRs, enzymes, ion channels, transporters, and nuclear receptors; test: Safety screen off-target panel (Eurofins Cerep SafetyScreen44); type: binding; conditions: tested at 10 μM; all the receptors studied
Method: Selectivity assays were performed at Eurofins Cerep as a contract service. A summary of the protocol and the reference for the assays are listed on the Eurofins Cerep website at (https://www.eurofinsdiscoveryservices.com/catalogmanagement/viewItem/SafetyScreen44-Panel-Cerep/P270). The tested targets are listed below:
GPCRs: A2A (agonist radioligand), α1A (antagonist radioligand), α2A (antagonist radioligand), β1 (agonist radioligand), β2 (agonist radioligand), BK1 (antagonist and agonist radioligand), BK2 (antagonist and agonist radioligand), CB1 (antagonist and agonist radioligand), CB2 (antagonist and agonist radioligand), CCK1 (CCKA) (agonist radioligand), D1 (antagonist radioligand), D2 (antagonist and agonist radioligand), D3 (antagonist and agonist radioligand), ETA (agonist radioligand), H1 (antagonist radioligand), H2 (antagonist radioligand), M1 (antagonist radioligand), M2 (antagonist and agonist radioligand), M3 (antagonist radioligand), NK1 (agonist radioligand), δ (DOP) (agonist radioligand), κ(KOP) (agonist radioligand), µ(MOP) (agonist radioligand), ORL1 (agonist radioligand), 5-HT1A (agonist radioligand), 5-HT1B (antagonist radioligand), 5-HT2A (agonist radioligand), 5-HT2B (agonist radioligand), and V1a (agonist radioligand). […]

[2] = tested on: CYP-induced non-ulcerative IC rat model; test: Mechanical nociceptive abdominal and hind paw test (Von Frey) in chronic CYP-induced non-ulcerative IC/BPS; type: in vivo, female Sprague–Dawley rats
Method: CYP was administered to the animals by the intraperitoneal (i.p.) route (5 ml kg^−1) at the dosage of 75 mg kg^−1 for three times every third day to elicit chronic bladder irritation, as previously described ([Vizzard et al., 1996]).
DF2755A was administered by oral gavage (2 ml kg^−1) at different doses and times before, during, or after CYP treatment, as specified hereunder. DF2755A dosages were chosen based on previous studies that described pharmacokinetics, pharmacodynamics, and pharmacological characterization of the compound ([Lopes et al., 2016]).
Acute treatment: DF2755A was administered 24 h after the last CYP administration at 3, 7, 10, and 30 mg kg^−1.
Chronic preventive treatment: DF2755A was administered 12 h before the first CYP administration (20 mg kg^−1) and then twice daily (7 mg kg^−1) for 7 days during IC development.
Chronic therapeutic treatment: DF2755A was administered twice daily for 7 days at 7 mg kg^−1, starting from 24 h after the last CYP injection.
On the day of the test, each rat was placed individually in a clear plastic testing box with a grid floor and allowed to acclimatize for at least 10 min. Peripheral sensitivity in response to mechanical stimuli was determined using Von Frey monofilaments (1-2-4-8-15-26-60–100 g; Ugo Basile, Comerio, Varese, Italy) applied in the lower abdominal area (close to the urinary bladder) and on both hind paw plantar surfaces (to evaluate referred pain).
Each Von Frey monofilament was applied five times at the level of abdomen and three times at the level of each paw, in an ascending order of strength at interval of 5 s. A stimulus-induced response was considered positive when the paw was sharply withdrawn, paw licking occurred, or the animal flinched upon removal of the filament.
Behavioral testing was performed at different times: • 1) before CYP administration, in order to acquire basal values; • 2) after CYP administration and before DF2755A treatment, in order to verify the pathology induction and acquire pre-treatment values; • 3) at different times after DF2755A treatment, in order to acquire post-treatment values, specifically at 2 and 18 h after the last treatment.

[3] = Pharmacokinetics after single intravenous and oral administration; type: in vivo, male Wistar Han rats
Method: Pharmacokinetics of DF2755A, dissolved in saline solution (NaCl 0.9% w/v), was investigated after single intravenous and oral administrations in male Wistar Han rats. DF2755A was given as a single dose in three animals/group by intravenous (bolus) and oral (by gavage) administrations at a dose of 20 mg/kg. Pharmacokinetic evaluation was carried out on blood samples collected on day 1 at six time points from three animals/group (serial sampling).

[4] = tested on: CXCR1; set-up: method as in Lopes et al., 2016; conditions: ref Lopes et al., 2016; cited from earlier work
[5] = acute oral treatment 24 h after last CYP, abdomen and hind paw, 2 h after administration
[6] = preventive: 20 mg kg^−1 12 h before first CYP, then 7 mg kg^−1 twice daily for 7 days p.o., 24 h after last CYP
[7] = therapeutic 7 mg kg^−1 twice daily for 7 days, 3 and 7 days after treatment discontinuation
[8] = therapeutic 7 mg kg^−1 twice daily for 7 days, 18 h after the last administration
[9] = intravenous 20 mg kg^−1, male Wistar Han rats

**Q.** With C[C@H](C(=O)[O-])c1ccc(Nc2nc(C(F)(F)F)cs2)cc1.[Na+] [DF2755A, sodium (2S)-2-(4-{[4-(trifluoromethyl)-1,3-thiazol-2-yl]amino}phenyl)propanoate] as the compound, how does the “off-target effects in the safety screen assay” value [1] read?
**A.** Its value is “neglectable effects”.

**Q.** And the “dose at which the antinociceptive effects reached a plateau” value [2, 5]?
**A.** Its value is 7 mg/kg.

**Q.** What about the “dose from which the antinociceptive effect was statistically significant” value [2, 5] of the same compound?
**A.** The value was 3 mg/kg.

**Q.** And the “decrease of mechanical stimulus threshold versus basal values, hind paws” value [2, 6]?
**A.** Its value is 17%.

**Q.** What about the “decrease of mechanical stimulus threshold versus basal values, low abdomen” value [2, 6] of the same compound?
**A.** The value was “about 30%”.

**Q.** What about the “duration of anti-hyperalgesic effect after treatment discontinuation” value ([2]; therapeutic 7 mg kg^−1 twice daily for 7 days) of the same compound?
**A.** The value was “up to 7 days”.

**Q.** What about the “decrease of the threshold to mechanical stimulus, hind paw plantar surfaces” value [2, 7] of the same compound?
**A.** The value was 40%.

**Q.** And the “reduction of the threshold to mechanical stimulus, low abdomen” value [2, 7]?
**A.** The value was 53%.

**Q.** And the “decrease of mechanical stimulus threshold, low abdomen” value [2, 8]?
**A.** Its value is 55%.

**Q.** And the “decrease of the threshold to mechanical stimulus, hind paw plantar surfaces” value [2, 8]?
**A.** The value was 33%.

**Q.** What about the “reduction of the threshold to mechanical stimuli, low abdomen” value ([2]; therapeutic: 7 mg kg^−1 twice daily for 7 days p.o. from 24 h after last CYP, 2 h after last treatment (Figure 4A)) of the same compound?
**A.** The value was 24%.

**Q.** What about the “decrease of the threshold to mechanical stimuli, hind paw plantar surfaces” value ([2]; therapeutic: 7 mg kg^−1 twice daily for 7 days p.o. from 24 h after last CYP, 2 h after last treatment (Figure 4B)) of the same compound?
**A.** The value was 4%.

**Q.** What about the “overall systemic exposure (AUC0-t (last))” value [3, 9] of the same compound?
**A.** Its value is 578,017 ng/mlh.

**Q.** And the systemic clearance [3, 9]?
**A.** The systemic clearance was “slow”.

**Q.** And the half-life ([3]; male, Wistar Han, rat, plasma, 20 mg/kg, route not stated, read-out: half-life (converted))?
**A.** The half-life was 6.8 h.

**Q.** And the bioavailability ([3]; rat, plasma, po, 20 mg/kg, male Wistar Han rats, read-out: oral absolute bioavailability (F%))?
**A.** Its bioavailability is 86.2%.

**Q.** And the C0 ([3]; rat, plasma, intravenous 20 mg kg^−1, male Wistar Han rats, read-out: Plasma concentration at time zero (C0))?
**A.** The C0 was 117 µg/mL.

**Q.** What about the half-life ([3]; rat, plasma, intravenous 20 mg kg^−1, male Wistar Han rats, read-out: t1/2,z (converted)) of the same compound?
**A.** Its half-life is 8.1 h.

**Q.** And the Vd ([3]; rat, plasma, intravenous 20 mg kg^−1, male Wistar Han rats, read-out: volume of distribution at steady state)?
**A.** The Vd was under 1 L/kg.

**Q.** What about the Tmax ([3]; rat, plasma, oral 20 mg/kg, male Wistar Han rats) of the same compound?
**A.** The Tmax was 2 h.

**Q.** And the Cmax ([3]; rat, plasma, oral 20 mg/kg, male Wistar Han rats, read-out: maximum plasma concentration (Cmax))?
**A.** The Cmax was 43.5 µg/mL.

**Q.** What about the AUC(0-t) ([3]; rat, plasma, oral 20 mg/kg, male Wistar Han rats, read-out: overall systemic exposure (AUC0-t (last))) of the same compound?
**A.** Its AUC(0-t) is 498 µg·h/mL.

**Q.** And the distribution volume ([3]; route not stated)?
**A.** Its distribution volume is 0.35 L/kg.

**Q.** What about the IC50 [4] of the same compound?
**A.** The IC50 was 4.2 nM.
